# Measured values: US20060045953A1 (priority 2004, published 2006)
# Target: T1, hT1R1/hT1R3 umami receptor (Homo sapiens, UniProt Q7RTX0+Q7RTX1)
# T1 construct: expressed in transfected cells; host or cells: HEK293 derivative stably expressing Gα15, clone I-17, expression induced with mifepristone
# T1 sequence (Q7RTX1 21-841): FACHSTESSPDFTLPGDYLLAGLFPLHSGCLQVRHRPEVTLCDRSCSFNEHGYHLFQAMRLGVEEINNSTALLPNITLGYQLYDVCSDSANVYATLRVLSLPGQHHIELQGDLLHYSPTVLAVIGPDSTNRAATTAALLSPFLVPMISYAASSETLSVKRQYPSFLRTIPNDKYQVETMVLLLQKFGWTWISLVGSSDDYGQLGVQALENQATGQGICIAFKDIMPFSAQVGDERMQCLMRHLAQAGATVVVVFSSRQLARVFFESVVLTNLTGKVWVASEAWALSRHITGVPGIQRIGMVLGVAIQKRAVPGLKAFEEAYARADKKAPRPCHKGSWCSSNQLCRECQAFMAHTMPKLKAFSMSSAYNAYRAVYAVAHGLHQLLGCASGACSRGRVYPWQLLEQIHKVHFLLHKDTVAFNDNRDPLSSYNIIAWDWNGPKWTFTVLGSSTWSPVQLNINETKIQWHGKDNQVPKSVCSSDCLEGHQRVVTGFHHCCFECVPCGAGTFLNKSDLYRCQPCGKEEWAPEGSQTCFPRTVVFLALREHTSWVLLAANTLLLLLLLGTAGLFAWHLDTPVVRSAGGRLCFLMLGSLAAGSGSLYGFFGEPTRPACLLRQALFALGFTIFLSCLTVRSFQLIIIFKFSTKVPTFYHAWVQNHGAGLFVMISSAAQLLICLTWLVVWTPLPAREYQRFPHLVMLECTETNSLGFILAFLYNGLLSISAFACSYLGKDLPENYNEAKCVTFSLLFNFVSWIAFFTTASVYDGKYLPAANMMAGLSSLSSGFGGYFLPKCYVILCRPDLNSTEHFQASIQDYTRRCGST
# T1 sequence (Q7RTX0 21-852): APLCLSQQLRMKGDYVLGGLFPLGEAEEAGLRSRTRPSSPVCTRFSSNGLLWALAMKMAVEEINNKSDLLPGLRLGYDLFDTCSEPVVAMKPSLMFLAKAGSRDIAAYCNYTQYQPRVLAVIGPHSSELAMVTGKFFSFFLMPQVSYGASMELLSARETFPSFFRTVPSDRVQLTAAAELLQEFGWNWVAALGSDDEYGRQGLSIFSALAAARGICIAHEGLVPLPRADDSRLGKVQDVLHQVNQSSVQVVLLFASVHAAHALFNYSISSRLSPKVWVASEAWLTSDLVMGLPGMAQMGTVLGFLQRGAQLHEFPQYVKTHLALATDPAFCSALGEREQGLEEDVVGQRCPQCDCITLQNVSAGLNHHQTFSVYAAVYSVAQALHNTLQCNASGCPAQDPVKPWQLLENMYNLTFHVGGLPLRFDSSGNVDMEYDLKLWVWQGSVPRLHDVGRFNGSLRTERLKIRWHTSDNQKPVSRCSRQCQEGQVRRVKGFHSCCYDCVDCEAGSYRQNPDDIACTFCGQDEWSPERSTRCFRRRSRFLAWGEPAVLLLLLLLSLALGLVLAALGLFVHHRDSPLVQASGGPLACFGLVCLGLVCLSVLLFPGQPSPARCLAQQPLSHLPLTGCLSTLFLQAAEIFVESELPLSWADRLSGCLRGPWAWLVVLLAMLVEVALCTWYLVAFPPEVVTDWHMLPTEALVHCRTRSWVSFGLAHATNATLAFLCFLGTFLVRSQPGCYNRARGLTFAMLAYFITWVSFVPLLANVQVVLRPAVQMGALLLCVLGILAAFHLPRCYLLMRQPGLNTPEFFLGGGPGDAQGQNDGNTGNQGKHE
# Assay: In vitro hT1R1/hT1R3 umami taste receptor activation assay (FLIPR, dose response)
# Assay type: cell-based
# Conditions: read-out: EC50 for activation of a hT1R1/hT1R3 umami receptor expressed in an HEK293 cell line
# Source text: In order to identify new savory flavoring agents and enhancers, including compounds with savory agonist and enhancer activities (dual activity), the compounds of Formula (I) were screened in primary assays and secondary assays including compound dose response and enhancement assay. In a primary assay for potential ability to modulate umami taste, amide compounds of Formula (I) that can be either savory flavoring agents in their own right or flavor enhancers of MSG are identified and scores of their activities are given as percentage of the maximum MSG intensity (%). In compound dose response, an EC50 is calculated to reflect the potency of the compound as a savory agonist or enhancer.
# An HEK293 cell line derivative (See e.g., Chandrashekar, et al., Cell (2000) 100: 703-711) which stably expresses Gα15 and hT1R1/hT1R3 under an inducible promoter (see WO 03/001876 A2) was used to identify compounds with savory tasting properties.
# For dose-responses analysis, stimuli were presented in duplicates at 10 different concentrations ranging from 1.5 nM to 30 μM. Activities were normalized to the response obtained with 60 mM monosodium glutamate, a concentration that elicits maximum receptor response. […] Identical results were obtained when analyzing the dose-response data using commercially available software for non-linear regression analysis such as GraphPad PRISM (San Diego, Calif.).
row,Compound,EC50 [µM]
1,"COc1ccccc1/C=C/C(=O)NC1CCCCC1C (centres unmarked) [Example 89, 3-(2-Methoxy-phenyl)-N-(2-methyl-cyclohexyl)-acrylamide]",3.4
2,"CCCC(CCC)NC(=O)c1ccc(C)c(C)n1 [Example 91, N-(heptan-4-yl)-5,6-dimethylpicolinamide]",2.8
3,"CCCC(CCC)NC(=O)c1ccc(N(CC)CC)cc1 [Example 92, 4-(diethylamino)-N-(heptan-4-yl)benzamide]",7.6
4,"COC(=O)[C@@H](CC(C)C)NC(=O)c1cc(OC)nc(OC)c1 [Example 93, (R)-methyl 2-(2,6-dimethoxyisonicotinamido)-4-methylpentanoate]",1.91
5,"CCCC(CCC)NC(=O)c1ccc(OC)nc1 [Example 94, N-(heptan-4-yl)-6-methoxynicotinamide]",2.66
6,"CCCC(CCC)NC(=O)c1ccc(C)nc1Cl [Example 96, 2-chloro-N-(heptan-4-yl)-6-methylnicotinamide]",3.9
7,"CCCC(CCC)NC(=O)c1cc(C)nn1C [Example 99, N-(heptan-4-yl)-1,3-dimethyl-1H-pyrazole-5-carboxamide]",7.8
8,"CCCC(CCC)NC(=O)c1csc(C)n1 [Example 100, N-(heptan-4-yl)-2-methylthiazole-4-carboxamide]",7.2
9,"CCCC(CCC)NC(=O)c1ccc2ncccc2c1 [Example 101, N-(heptan-4-yl)quinoline-6-carboxamide]",3.2
10,"CCCC(CCC)NC(=O)c1cnc2ccccc2c1 [Example 102, N-(heptan-4-yl)quinoline-3-carboxamide]",15.8
11,"CCCC(CCC)NC(=O)c1nccc2ccccc12 [Example 103, N-(heptan-4-yl)isoquinoline-1-carboxamide]",14.2
12,"O=C(NCc1ccc(OC(F)(F)F)cc1)c1cccs1 [Example 105, N-(4-(trifluoromethoxy)benzyl)thiophene-2-carboxamide]",2.4
13,"COc1ccc(C(=O)NCCSCc2ccco2)cc1C [Example 106, N-(2-(furan-2-ylmethylthio)ethyl)-4-methoxy-3-methylbenzamide]",5.6
14,"O=C(NCc1ccc(OC(F)(F)F)cc1)c1ccsc1 [Example 107, Thiophene-3-carboxylic acid 4-trifluoromethoxy-benzylamide]",2.2
15,"COc1ccc(CNC(=O)c2sccc2C)c(OC)c1 [Example 108, 3-Methyl-thiophene-2-carboxylic acid 2,4-dimethoxy-benzylamide]",5.6
16,"COc1ccc(CNC(=O)c2ccc(-c3ccccn3)s2)c(OC)c1 [Example 109, 5-Pyridin-2-yl-thiophene-2-carboxylic acid 2,4-dimethoxy-benzylamide]",2.86
17,"COc1ccc(CNC(=O)c2ccnn2C)c(OC)c1 [Example 110, 2-Methyl-2H-pyrazole-3-carboxylic acid 2,4-dimethoxy-benzylamide]",6
18,"Cc1cc(C(=O)NC(C)CCc2ccccc2)ccc1O (centres unmarked) [Example 111, 4-Hydroxy-3-methyl-N-(1-methyl-3-phenyl-propyl)-benzamide]",2.7
19,"CCc1ccc(CCNC(=O)c2ccc3c(c2)OCO3)cc1 [Example 112, Benzo[1,3]dioxole-5-carboxylic acid [2-(4-ethyl-phenyl)-ethyl]-amide]",3.86
20,"CCCC(NC(=O)c1ccc(OC)c(C)c1)c1ccccc1 (centres unmarked) [Example 113, 4-Methoxy-3-methyl-N-(1-phenyl-butyl)-benzamide]",2.5
21,"CCCC(NC(=O)c1ccc2c(c1)OCO2)c1ccc(OC)cc1 (centres unmarked) [Example 115, Benzo[1,3]dioxole-5-carboxylic acid [1-(4-methoxy-phenyl)-butyl]-amide]",4.12
22,"CCCC(NC(=O)c1ccc(OCC)c(C)c1)c1ccc(OC)cc1 (centres unmarked) [Example 116, 4-Ethoxy-N-[1-(4-methoxy-phenyl)-butyl]-3-methyl-benzamide]",3.9
23,"COc1ccc([C@@H](C)NC(=O)c2ccc(OC)c(C)c2)cc1 [Example 117, 4-Methoxy-N-[1-(R)-(4-methoxy-phenyl)-ethyl]-3-methyl-benzamide]",2.8

# Stronger by EC50, values ahead:
row,EC50 [µM],Compound
1,1.84,"CCCC(CC(C)C)NC(=O)/C=C/c1ccc(OC)cc1 (centres unmarked) [Example 79, 3-(4-Methoxy-phenyl)-N-(3-methyl-1-propyl-butyl)-acrylamide]"
2,1.54,"CCCC(NC(=O)c1ccc(OC)c(C)c1)c1ccccn1 (centres unmarked) [Example 114, 4-Methoxy-3-methyl-N-(1-pyridin-2-yl-butyl)-benzamide]"
3,1.5,"CC(C)/C=C/C(=O)NC1CCCc2ccccc21 (centres unmarked) [Example 84, 4-Methyl-pent-2-enoic acid (1,2,3,4-tetrahydro-naphthalen-1-yl)-amide]"
4,1.39,"CCCC(CCC)NC(=O)c1ccc(OC)cc1C#N [Example 97, 2-cyano-N-(heptan-4-yl)-4-methoxybenzamide]"
5,1.35,"CCOc1ccc(/C=C/C(=O)NC(CC)CC)cc1 [Example 82, 3-(4-Ethoxy-phenyl)-N-(1-ethyl-propyl)-acrylamide]"
6,1.19,"CCCC(CCC)NC(=O)c1ccc2occc2c1 [Example 90, N-(heptan-4-yl)benzofuran-5-carboxamide]"
7,1.1,"COc1ccc(/C=C/C(=O)N[C@@H](CO)Cc2ccccc2)cc1 [Example 81, N-(1-Benzyl-2-hydroxy-ethyl)-3-(4-methoxy-phenyl)-acrylamide]"
8,1.01,"CCCC(CCC)NC(=O)c1cnc(C)c(C)n1 [Example 95, 5,6-dimethylpyrazine-2-carboxylic acid (1-propylbutyl)amide]"
9,0.97,"CCCC(CCC)NC(=O)/C=C/c1ccc(OC)c(OC)c1 [Example 87, 3-(3,4-Dimethoxy-phenyl)-N-(1-propyl-butyl)-acrylamide]"
10,0.92,"CCCCC/C=C/C(=O)N[C@H](CC(C)C)C(=O)OC [Example 78, (R,E)-methyl 4-methyl-2-oct-2-enamidopentanoate]"
11,0.9,"COC[C@@H](CC(C)C)NC(=O)/C=C/c1ccc(OC)cc1 [Example 80, N-(1-Methoxymethyl-3-methyl-butyl)-3-(4-methoxy-phenyl)-acrylamide]"
12,0.9,"CCCC(CCC)NC(=O)/C=C/c1ccccc1OC [Example 86, 3-(2-Methoxy-phenyl)-N-(1-propyl-butyl)-acrylamide]"
13,0.59,"COC(=O)[C@@H](CC(C)C)NC(=O)/C=C/c1cccs1 [Example 83, 4-Methyl-2-(3-thiophen-2-yl-acryloylamino)-pentanoic acid methyl ester]"
14,0.44,"CCCC(CCC)NC(=O)/C=C/c1cccs1 [Example 77, (E)-N-(heptan-4-yl)-3-(thiophen-2-yl)acrylamide]"
15,0.16,"CCCC(CCC)NC(=O)/C=C/c1ccccc1F [Example 85, 3-(2-Fluoro-phenyl)-N-(1-propyl-butyl)-acrylamide]"
